Measured values as given in patent US8129396B2, “2-[1H-benzimidazol-2(3H)-ylidene]-2-(pyrimidin-2-yl)acetamides and 2-[benzothiazol-2(3H)-ylidene]-2-(pyrimidin-2-yl)acetamides as kinase inhibitors” (Telik, Inc., priority 2008, dated 2012).

How the values were obtained:
VEGFR2 kinase = target: T1, VEGFR2 kinase (Homo sapiens, UniProt P35968); assay: VEGFR2 kinase assay; assay type: biochemical; details: 6 μM ATP, 1 mM MnCl2; rounded to 1 significant figure
T1 construct: purchased Cell Signaling Technology
Source text: (§1) The cell lines HL60 (human promyelocytic leukemia) and HCT116 (human colon carcinoma) were obtained from the American Type Culture Collection, Manassas, Va., U.S.A., and HUVEC-2 (human umbilical vein endothelial cells) from BD Biosciences, Bedford, Mass., U.S.A. Aurora A kinase was obtained from Upstate Biotech, Billerica, Mass., U.S.A.; Aurora B kinase from BPS Bioscience, San Diego, Calif., U.S.A.; and VEGFR2 kinase from Cell Signaling Technology, Danvers, Mass., U.S.A. The IMAP FP Screening Express kit was obtained from Molecular Devices, Sunnyvale, Calif., U.S.A.; the CellTiter-Glo assay kit from Promega Corporation, Madison, Wis., U.S.A.; and the Cellular DNA Cytometric Analysis Reagent Kit and BrdU labeling and detection kit from Roche Diagnostics Corporation, Indianapolis, Ind., U.S.A. All products were used in accordance with manufacturer's directions. Kinase inhibition assays and the histone phosphorylation (p-H3) assay were conducted in duplicate, and the cytotoxicity and HUVEC proliferation assays were conducted in triplicate, in each case with solvent control.
This assay was performed as for the Aurora A kinase assay, using VEGFR2 kinase, CSKtide as the substrate with 6 μM ATP and 1 mM MnCl2, a kinase reaction time of 1 hr, and dilution of the binding reagent 1:1200 in binding buffer A/binding buffer B (1:1).

p-H3 in HCT116 cells = assay: Histone phosphorylation (p-H3) assay; assay type: cell-based; details: Homo sapiens, HCT-116; HCT116 cells, 4 hr incubation; read-out: p-H3 IC50
Source text: as §1
Log phase HCT116 cells were seeded at 2.5×10^4 cells/well in a 96-well plate and allowed to attach overnight. The test compounds were diluted in DMSO (8 concentrations with serial 3-fold dilutions) and added to the cells (0.5% DMSO final concentration), and the cells incubated for 4 hr. The cells were then washed three times with cold phosphate-buffered saline (PBS), and lysis buffer was added. After 30 min shaking at 4° C. and centrifugation, the supernatants were transferred to a nitrocellulose membrane by a “dot-blot” apparatus. After washing the wells, the membrane was processed for Western blot. Detection of p-H3 and β-actin was performed on the same membrane with primary rabbit anti-p-H3 and mouse anti-β-actin antibodies followed by secondary goat anti-rabbit IRDye800 and goat anti-mouse AlexaFluor 680 antibodies. The membranes were scanned on an Odyssey scanner.

Aurora A kinase = target: T2, Aurora A kinase (Homo sapiens, UniProt O14965); assay: Aurora A kinase assay (IMAP fluorescence polarization); assay type: biochemical; details: 10 μM ATP; rounded to 1 significant figure; read-out: Aur-A IC50
T2 construct: purchased Upstate Biotech
T2 sequence (O14965 1-403): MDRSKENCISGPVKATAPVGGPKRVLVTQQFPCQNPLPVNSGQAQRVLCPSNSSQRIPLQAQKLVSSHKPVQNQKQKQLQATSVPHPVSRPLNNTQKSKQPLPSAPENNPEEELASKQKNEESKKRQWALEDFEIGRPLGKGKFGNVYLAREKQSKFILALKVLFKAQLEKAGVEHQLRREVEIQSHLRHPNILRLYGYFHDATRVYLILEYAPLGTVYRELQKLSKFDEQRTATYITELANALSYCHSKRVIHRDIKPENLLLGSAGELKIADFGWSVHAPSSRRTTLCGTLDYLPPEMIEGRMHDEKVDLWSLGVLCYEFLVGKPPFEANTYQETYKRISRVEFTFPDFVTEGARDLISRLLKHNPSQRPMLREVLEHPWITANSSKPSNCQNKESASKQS
Source text: as §1
Aurora A kinase assay: the test compounds were diluted in dimethylsulfoxide (DMSO, eight concentrations with serial 3-fold dilutions) and incubated (final DMSO concentration 2.5%) with Aurora A kinase at room temperature for 5 min in kinase reaction buffer with 1 mM dithiothreitol (IMAP FP Screening Express). The kinase reaction was initiated by adding 100 nM fluorescein labeled PKAtide and 10 μM adenosine triphosphate (ATP), and allowed to continue for 45 min at room temperature, after which it was stopped by adding binding reagent (1:400 dilution in binding buffer A). After 30 min of room temperature incubation with shaking, the fluorescence polarization was measured on a LJL plate reader. Aurora B kinase assay: performed as for the Aurora A kinase assay, but using Aurora B kinase instead of Aurora A kinase.

[1] = system: HCT116 (human colon carcinoma) cells; assay: HCT116 cytotoxicity assay (CellTiter-Glo); assay type: cell-based; details: HCT-116, 72 h, cytotoxicity, three days culture, read-out: HCT116 IC50
Source text: as §1
Log-phase cells were trypsinized, collected by centrifugation, and resuspended in a small volume of fresh medium, and the density of viable cells was determined following Trypan Blue staining. Cells were diluted in fresh media (1×10^4 cells/mL for HL60 and 4×10^4 cells/mL for HCT116 cells), the test compounds (concentrations between 0.1 μM and 200 μM, dissolved in DMSO, 50 μL) added immediately after dilution to achieve a final DMSO concentration of 0.5%, then the suspensions added at 150 μL/well to 96-well plates, and incubated overnight to allow attachment in the case of adherent cells. The cells were cultured for three days (about three doubling times). The cells were then collected by centrifugation, and 100 μL of the culture supernatant was replaced by the CellTiter-Glo reagent. After incubation for 15 minutes at room temperature, the plate was read with a luminometer.

Aurora B kinase = target: T3, Aurora B kinase (Homo sapiens, UniProt Q96GD4); assay: Aurora B kinase assay (IMAP fluorescence polarization); assay type: biochemical; details: 10 μM ATP; rounded to 1 significant figure; read-out: Aur-B IC50
T3 construct: purchased BPS Bioscience
Source text: as §1
The kinase reaction was initiated by adding 100 nM fluorescein labeled PKAtide and 10 μM adenosine triphosphate (ATP), and allowed to continue for 45 min at room temperature, after which it was stopped by adding binding reagent (1:400 dilution in binding buffer A). After 30 min of room temperature incubation with shaking, the fluorescence polarization was measured on a LJL plate reader. Aurora B kinase assay: performed as for the Aurora A kinase assay, but using Aurora B kinase instead of Aurora A kinase.

T3 sequence (Q96GD4 whole entry): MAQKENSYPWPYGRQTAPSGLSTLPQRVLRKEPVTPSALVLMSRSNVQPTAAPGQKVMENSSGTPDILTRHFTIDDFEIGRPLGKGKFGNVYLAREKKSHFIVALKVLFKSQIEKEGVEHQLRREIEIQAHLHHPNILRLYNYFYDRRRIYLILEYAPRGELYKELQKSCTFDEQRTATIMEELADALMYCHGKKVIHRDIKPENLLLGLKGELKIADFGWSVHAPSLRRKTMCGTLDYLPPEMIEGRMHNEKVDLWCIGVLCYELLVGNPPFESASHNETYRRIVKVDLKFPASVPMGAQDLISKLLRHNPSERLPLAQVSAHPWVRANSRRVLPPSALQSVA
T1 sequence (P35968 20-1356): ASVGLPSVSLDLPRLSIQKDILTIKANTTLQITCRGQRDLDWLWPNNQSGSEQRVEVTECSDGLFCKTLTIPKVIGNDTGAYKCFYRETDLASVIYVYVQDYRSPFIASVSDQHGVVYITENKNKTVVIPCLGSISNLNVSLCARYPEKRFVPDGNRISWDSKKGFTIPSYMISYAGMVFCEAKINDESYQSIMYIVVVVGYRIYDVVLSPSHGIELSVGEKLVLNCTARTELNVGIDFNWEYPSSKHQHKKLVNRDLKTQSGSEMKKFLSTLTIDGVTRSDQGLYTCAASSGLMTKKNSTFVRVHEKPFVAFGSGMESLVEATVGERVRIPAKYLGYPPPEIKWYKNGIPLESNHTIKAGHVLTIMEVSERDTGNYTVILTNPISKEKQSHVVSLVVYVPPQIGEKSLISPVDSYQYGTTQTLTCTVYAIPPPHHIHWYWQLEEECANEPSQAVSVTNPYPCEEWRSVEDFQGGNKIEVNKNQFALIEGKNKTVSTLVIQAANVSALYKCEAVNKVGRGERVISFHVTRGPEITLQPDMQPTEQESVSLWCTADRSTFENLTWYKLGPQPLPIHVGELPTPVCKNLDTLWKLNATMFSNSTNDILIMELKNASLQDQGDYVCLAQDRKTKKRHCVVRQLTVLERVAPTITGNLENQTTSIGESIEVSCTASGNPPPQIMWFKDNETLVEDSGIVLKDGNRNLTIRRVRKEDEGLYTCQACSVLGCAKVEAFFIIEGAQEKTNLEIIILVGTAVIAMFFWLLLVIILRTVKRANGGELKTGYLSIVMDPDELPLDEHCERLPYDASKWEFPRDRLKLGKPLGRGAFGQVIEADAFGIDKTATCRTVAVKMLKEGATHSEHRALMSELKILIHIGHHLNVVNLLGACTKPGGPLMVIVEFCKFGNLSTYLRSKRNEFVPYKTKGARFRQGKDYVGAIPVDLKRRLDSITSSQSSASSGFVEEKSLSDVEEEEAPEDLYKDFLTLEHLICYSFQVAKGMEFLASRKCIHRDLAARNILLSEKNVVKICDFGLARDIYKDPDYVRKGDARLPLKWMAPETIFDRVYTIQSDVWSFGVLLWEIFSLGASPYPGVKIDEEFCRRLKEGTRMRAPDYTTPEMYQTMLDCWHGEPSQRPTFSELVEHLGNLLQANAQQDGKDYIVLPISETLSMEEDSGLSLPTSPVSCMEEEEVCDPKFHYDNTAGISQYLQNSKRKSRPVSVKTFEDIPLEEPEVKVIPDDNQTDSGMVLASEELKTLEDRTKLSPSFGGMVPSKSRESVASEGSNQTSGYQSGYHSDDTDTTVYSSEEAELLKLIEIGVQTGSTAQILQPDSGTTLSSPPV

SMILES	IC50 (VEGFR2 kinase) [nM]	IC50 (p-H3 in HCT116 cells) [nM]	IC50 (Aurora A kinase) [nM]	IC50 (Aurora B kinase) [nM]	IC50 [1] [nM]
NC(=O)C(=C1Nc2ccc([N+](=O)[O-])cc2S1)c1nccc(C(F)(F)F)n1 (single isomer, unassigned) [Compound 26A, 2-[6-nitrobenzothiazol-2(3H)-ylidene]-2-(4-trifluoromethylpyrimidin-2-yl)acetamide]	1000	> 50000	200	100	20000
COC(=O)c1cnc(/C(C(N)=O)=C2/Nc3ccccc3S2)nc1C(F)(F)F [Compound 3A]	90	20000	20	10	3000
COC(=O)c1cnc(C(C(N)=O)=C2Nc3ccccc3N2)nc1C(F)(F)F [Compound 4A]	30	> 40000	4	10	2000
NC(=O)/C(=C1\Nc2ccccc2S1)c1nc(OCCN2CCOCC2)cc(C(F)(F)F)n1 [Compound 14A]	80	> 50000	50	30	8000
Cc1ccnc(/C(C(N)=O)=C2/Nc3ccccc3S2)n1 [Compound 18A]	500	2000	200	40	20000
Cc1ccnc(C(C(N)=O)=C2Nc3ccccc3N2)n1 [Compound 19A]	–	> 50000	400	30	20000
CCc1cnc(/C(C(N)=O)=C2/Nc3ccccc3S2)nc1 [Compound 21A]	1000	–	200	100	20000
Cc1cc(C)nc(/C(C(N)=O)=C2/Nc3ccccc3S2)n1 [Compound 22A]	200	2000	80	10	10000
COC(=O)c1cc(C)nc(/C(C(N)=O)=C2/Nc3ccccc3S2)n1 [Compound 23A]	100	8000	70	6	50000
Cc1cc(C(=O)O)nc(/C(C(N)=O)=C2/Nc3ccccc3S2)n1 [Compound 24A]	400	–	900	1000	> 50000
NC(=O)/C(=C1\Nc2ccc(I)cc2S1)c1nccc(C(F)(F)F)n1 [Compound 25A]	400	> 50000	200	100	10000
NC(=O)/C(=C1\Nc2ccc(C(=O)O)cc2S1)c1nccc(C(F)(F)F)n1 [Compound 27A]	10	1000	3	9	7000
COC(=O)c1ccc2c(c1)N/C(=C(/C(N)=O)c1nccc(C(F)(F)F)n1)N2 [Compound 29A]	100	> 5000	30	10	200
NC(=O)/C(=C1\Nc2ccc(C(=O)N(CCO)CCO)cc2N1)c1nccc(C(F)(F)F)n1 [Compound 30A]	8	1000	10	10	–
NC(=O)/C(=C1\Nc2ccc(CO)cc2N1)c1nccc(C(F)(F)F)n1 [Compound 35A]	20	600	9	5	200
NC(=O)/C(=C1/Nc2cc(F)cc(F)c2N1)c1nccc(C(F)(F)F)n1 [Compound 36A]	200	> 5000	30	40	4000
CCN(C(=O)c1ccc2c(c1)N/C(=C(/C(N)=O)c1nccc(C(F)(F)F)n1)N2)c1cccnc1 [Compound 43A]	–	–	6	10	–

Further lines, with some results ahead:

IC50 (VEGFR2 kinase) [nM]	IC50 (p-H3 in HCT116 cells) [nM]	IC50 (Aurora A kinase) [nM]	IC50 (Aurora B kinase) [nM]	SMILES	IC50 [1] [nM]
100	> 50000	60	60	NC(=O)/C(=C1\Nc2cccc(C(=O)NCCCN3CCOCC3)c2S1)c1nccc(C(F)(F)F)n1 [Compound 52A]	1000
10	900	50	20	NCCCNC(=O)c1ccc2c(c1)N/C(=C(/C(N)=O)c1nccc(C(F)(F)F)n1)N2 [Compound 64A]	2000
7	400	30	20	NCCCNC(=O)c1ccc2c(c1)S/C(=C(/C(N)=O)c1nccc(C(F)(F)F)n1)N2 [Compound 65A]	200
4	1000	60	10	NC(=O)/C(=C1\Nc2ccc(C(=O)NC3CCNCC3)cc2N1)c1nccc(C(F)(F)F)n1 [Compound 70A]	600
–	–	6	8	Cn1cncc1CCc1ccc2c(c1)S/C(=C(/C(N)=O)c1nccc(C(F)(F)F)n1)N2 [Compound 98A]	–
–	50	4	7	NC(=O)/C(=C1\Nc2ccc(CCN3CCOCC3)cc2N1)c1nccc(C(F)(F)F)n1 [Compound 102A]	–
–	100	5	7	NC(=O)/C(=C1\Nc2ccc(CCO)cc2N1)c1nccc(C(F)(F)F)n1 [Compound 105A]	–
90	2000	100	40	NC(=O)/C(=C1\Nc2ccc(N3CCC(N)C3)cc2S1)c1nccc(C(F)(F)F)n1 (centres unmarked) [Compound 123A]	4000
40	2000	80	30	NC(=O)/C(=C1\Nc2ccccc2S1)c1nc(NCCN2CCOCC2)cc(C(F)(F)F)n1 [Compound 137A]	2000
